Experimental data reported in patent US8471005B2 (Cephalon, Inc., priority 2008, dated 2013).
Read-outs that look alike come from different tables or passages of the source.

Columns and labels:
ALK = biological target: T1, ALK (Homo sapiens, UniProt Q9UM73); assay: ALK Kinase Assay (ELISA/TRF, PLC-γ substrate); assay type: biochemical; conditions: read-out: ALK Potency
T1 construct: host or cells: baculovirus expression system
Summary of the method: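 PLC-γ substrate coated at 10 μg/mL in TBS; reaction started with 30 ng/ml ALK, run 15 min at 37° C. Phosphoproduct detected by TRF with Eu-N1-labeled PT66 anti-phosphotyrosine antibody. IC50 from sigmoidal variable-slope fit of percent inhibition versus log concentration.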

JAK2 = biological target: T2, JAK2 (Homo sapiens, UniProt O60674); assay: Recombinant Human JAK2 Kinase Assay (TRF); assay type: biochemical; conditions: read-out: JAK2 Potency
T2 construct: host or cells: baculovirus expression system
Summary of the method: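 TRF read-out: Eu-N1 PY100 anti-phosphotyrosine antibody detects product. Enzyme is baculovirus-expressed JAK2 at 15 ng/ml; substrate is a biotinyl 15-mer peptide bound to Neutravidin-coated wells. Buffer 20 mM HEPES pH 7.2, 0.2 μM ATP, 1 mM MnCl2, 0.1% BSA, 2.5% DMSO final; 20 min, RT.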

[1] = ALK kinase inhibition, 1 μM ATP
[2] = JAK2 kinase inhibition, 0.2 μM ATP

T1 sequence (Q9UM73 19-1620): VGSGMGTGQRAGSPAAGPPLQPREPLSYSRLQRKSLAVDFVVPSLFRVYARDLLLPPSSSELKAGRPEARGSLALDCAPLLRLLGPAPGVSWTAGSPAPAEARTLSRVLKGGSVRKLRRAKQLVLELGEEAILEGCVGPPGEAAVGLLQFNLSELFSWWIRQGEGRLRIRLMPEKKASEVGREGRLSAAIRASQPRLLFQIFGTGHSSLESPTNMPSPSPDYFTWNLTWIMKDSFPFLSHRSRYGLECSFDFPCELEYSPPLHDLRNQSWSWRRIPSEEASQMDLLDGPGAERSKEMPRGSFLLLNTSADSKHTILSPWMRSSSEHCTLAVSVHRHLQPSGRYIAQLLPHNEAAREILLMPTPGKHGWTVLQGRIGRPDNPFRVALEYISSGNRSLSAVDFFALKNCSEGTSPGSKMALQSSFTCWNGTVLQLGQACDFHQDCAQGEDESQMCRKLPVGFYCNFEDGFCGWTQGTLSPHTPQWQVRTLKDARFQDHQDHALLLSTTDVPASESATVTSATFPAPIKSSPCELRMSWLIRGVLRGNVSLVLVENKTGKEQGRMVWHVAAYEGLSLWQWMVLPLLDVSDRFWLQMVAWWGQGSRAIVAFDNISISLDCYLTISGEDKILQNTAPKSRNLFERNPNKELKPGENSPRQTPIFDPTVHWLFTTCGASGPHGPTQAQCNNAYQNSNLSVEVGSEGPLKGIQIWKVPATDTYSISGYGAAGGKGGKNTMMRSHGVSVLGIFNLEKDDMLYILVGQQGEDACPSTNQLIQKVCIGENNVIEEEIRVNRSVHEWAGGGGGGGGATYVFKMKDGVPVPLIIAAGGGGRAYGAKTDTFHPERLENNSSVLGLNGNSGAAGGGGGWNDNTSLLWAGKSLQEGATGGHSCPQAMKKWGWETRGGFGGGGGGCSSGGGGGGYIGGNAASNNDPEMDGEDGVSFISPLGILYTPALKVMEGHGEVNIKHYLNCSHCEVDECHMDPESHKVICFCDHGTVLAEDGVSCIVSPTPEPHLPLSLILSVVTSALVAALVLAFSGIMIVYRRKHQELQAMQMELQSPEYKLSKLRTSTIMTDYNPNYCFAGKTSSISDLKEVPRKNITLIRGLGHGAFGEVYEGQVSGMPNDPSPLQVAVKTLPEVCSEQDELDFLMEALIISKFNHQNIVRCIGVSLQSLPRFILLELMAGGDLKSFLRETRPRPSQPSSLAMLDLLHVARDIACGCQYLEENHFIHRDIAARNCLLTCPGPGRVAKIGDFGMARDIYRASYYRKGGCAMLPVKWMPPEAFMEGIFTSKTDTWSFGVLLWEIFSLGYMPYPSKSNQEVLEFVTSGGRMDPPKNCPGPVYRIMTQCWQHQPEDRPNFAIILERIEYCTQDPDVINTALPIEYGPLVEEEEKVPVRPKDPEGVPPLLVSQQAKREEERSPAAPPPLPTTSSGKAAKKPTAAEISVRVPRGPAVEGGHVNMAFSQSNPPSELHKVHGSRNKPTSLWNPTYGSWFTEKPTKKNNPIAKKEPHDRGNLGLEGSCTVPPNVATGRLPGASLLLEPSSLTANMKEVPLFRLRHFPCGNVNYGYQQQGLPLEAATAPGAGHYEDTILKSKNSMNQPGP
T2 sequence (O60674 whole entry): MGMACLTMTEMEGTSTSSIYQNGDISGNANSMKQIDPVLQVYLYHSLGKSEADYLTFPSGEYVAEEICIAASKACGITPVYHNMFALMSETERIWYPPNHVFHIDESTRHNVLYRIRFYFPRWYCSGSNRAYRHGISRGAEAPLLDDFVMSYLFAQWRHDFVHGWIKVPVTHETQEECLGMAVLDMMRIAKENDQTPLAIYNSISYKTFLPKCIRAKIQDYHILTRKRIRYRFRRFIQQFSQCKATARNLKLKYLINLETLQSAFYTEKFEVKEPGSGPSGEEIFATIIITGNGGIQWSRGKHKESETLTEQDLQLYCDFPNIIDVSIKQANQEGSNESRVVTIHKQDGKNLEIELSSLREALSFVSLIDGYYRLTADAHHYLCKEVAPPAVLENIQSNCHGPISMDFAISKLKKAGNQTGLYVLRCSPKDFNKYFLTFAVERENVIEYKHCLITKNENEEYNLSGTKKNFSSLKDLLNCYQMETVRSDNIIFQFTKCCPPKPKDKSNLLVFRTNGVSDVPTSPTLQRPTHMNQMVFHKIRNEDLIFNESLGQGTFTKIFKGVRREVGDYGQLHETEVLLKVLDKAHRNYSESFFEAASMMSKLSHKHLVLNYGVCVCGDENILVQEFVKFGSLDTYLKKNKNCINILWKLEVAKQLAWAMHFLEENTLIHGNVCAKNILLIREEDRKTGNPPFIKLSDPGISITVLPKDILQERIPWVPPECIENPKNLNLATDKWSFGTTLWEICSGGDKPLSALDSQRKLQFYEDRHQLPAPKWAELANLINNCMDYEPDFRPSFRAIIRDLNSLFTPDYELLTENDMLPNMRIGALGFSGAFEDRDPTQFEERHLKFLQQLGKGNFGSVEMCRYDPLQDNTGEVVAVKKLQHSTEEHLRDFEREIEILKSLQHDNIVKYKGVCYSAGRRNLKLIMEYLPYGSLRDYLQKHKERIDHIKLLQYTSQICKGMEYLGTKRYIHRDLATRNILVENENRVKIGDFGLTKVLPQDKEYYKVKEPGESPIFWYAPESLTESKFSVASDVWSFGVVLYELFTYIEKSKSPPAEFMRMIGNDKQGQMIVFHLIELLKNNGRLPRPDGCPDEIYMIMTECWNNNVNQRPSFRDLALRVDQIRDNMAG

Row | Structure (SMILES) | IC50 (ALK; [1]) | IC50 (JAK2; [2]) | IC50 (ALK; ALK Kinase Inhibition) | IC50 (JAK2; JAK2 Kinase Inhibition)
1 | COc1ccc(-c2ccc3cnc(Nc4ccc(-c5csnn5)cc4)nn23)cn1 [Example 909, [7-(6-Methoxy-pyridin-3-yl)-pyrrolo[2,1-f][1,2,4]triazin-2-yl]-(4-[1,2,3]thiadiazol-4-yl-phenyl)-amine] | 1000 to 10000 nM | < 100 nM | – | –
2 | CS(=O)(=O)c1ccc(-c2ccc3cnc(Nc4ccc5nc[nH]c5c4)nn23)cc1 [Example 1304, (3H-Benzimidazol-5-yl)-[7-(4-methanesulfonyl-phenyl)-pyrrolo[2,1-f][1,2,4]triazin-2-yl]-amine] | 100 to 1000 nM | < 100 nM | – | –
3 | CC(C)Oc1cccc(-c2ccc3cnc(Nc4ccc(C5CCN(CC(N)=O)CC5)cc4)nn23)c1 [Example 588, 2-(4-{4-[7-(3-Isopropoxy-phenyl)-pyrrolo[2,1-f][1,2,4]triazin-2-ylamino]-phenyl}-piperidin-1-yl)-acetamide] | 100 to 1000 nM | < 100 nM | – | –
4 | CN1CCC(c2ccc(Nc3ncc4ccc(-c5cccc(S(=O)(=O)NCc6ccccc6)c5)n4n3)cc2)CC1 [Example 904, N-Benzyl-3-{2-[4-(1-methyl-piperidin-4-yl)-phenylamino]-pyrrolo[2,1-f][1,2,4]triazin-7-yl}-benzenesulfonamide] | 100 to 1000 nM | < 100 nM | – | –
5 | CN1CCN(c2cccc(Nc3ncc4ccc(-c5cnn(S(C)(=O)=O)c5)n4n3)c2)CC1 [Example 950, [7-(1-Methanesulfonyl-1H-pyrazol-4-yl)-pyrrolo[2,1-f][1,2,4]triazin-2-yl]-[3-(4-methyl-piperazin-1-yl)-phenyl]-amine] | 100 to 1000 nM | < 100 nM | – | –
6 | COc1cc(N2CCC(N3CC[C@@H](O)C3)CC2)ccc1Nc1ncc2ccc(-c3ccccc3N(C)S(C)(=O)=O)n2n1 [Example 478, N-[2-(2-{4-[4-((R)-3-Hydroxy-pyrrolidin-1-yl)-piperidin-1-yl]-2-methoxy-phenylamino}-pyrrolo[2,1-f][1,2,4]triazin-7-yl)-phenyl]-N-methyl-methanesulfonamide] | < 100 nM | < 100 nM | – | –
7 | CN1CCN(C2CCN(c3ccc(Nc4ncc5ccc(-c6cccc(Cl)c6)n5n4)cc3)CC2)CC1 [Example 312, [7-(3-Chloro-phenyl)-pyrrolo[2,1-f][1,2,4]triazin-2-yl]-{4-[4-(4-methyl-piperazin-1-yl)-piperidin-1-yl]-phenyl}-amine] | – | – | < 100 nM | < 100 nM
8 | CC1(C)C(=O)Nc2cc(Nc3ncc4ccc(-c5ccccn5)n4n3)ccc21 [Example 1563, 3,3-Dimethyl-6-(7-pyridin-2-yl-pyrrolo[2,1-f][1,2,4]triazin-2-ylamino)-1,3-dihydro-indol-2-one] | – | – | 100 to 1000 nM | < 100 nM
9 | COc1cc(C2CCN(C[C@@H](C)O)CC2)ccc1Nc1ncc2ccc(-c3cc(Cl)ccc3OC)n2n1 [Example 794, (R)-1-(4-{4-[7-(5-Chloro-2-methoxy-phenyl)-pyrrolo[2,1-f][1,2,4]triazin-2-ylamino]-3-methoxy-phenyl}-piperidin-1-yl)-propan-2-ol] | < 100 nM | 100 to 1000 nM | – | –
10 | CN1CCN(c2ccc(Nc3ncc4ccc(-c5ccccc5OCC(=O)OC(C)(C)C)n4n3)cc2)CC1 [Example 1173, (2-{2-[4-(4-Methyl-piperazin-1-yl)-phenylamino]-pyrrolo[2,1-f][1,2,4]triazin-7-yl}-phenoxy)-acetic acid tert-butyl ester] | 1000 to 10000 nM | < 100 nM | – | –
11 | C[C@H](O)CN1CCN(c2ccc(Nc3ncc4ccc(-c5cccc(Cl)c5)n4n3)cc2)CC1 [Example 204, (S)-1-(4-{4-[7-(3-Chloro-phenyl)-pyrrolo[2,1-f][1,2,4]triazin-2-ylamino]-phenyl}-piperazin-1-yl)-propan-2-ol] | – | – | < 100 nM | < 100 nM
12 | COc1ccccc1-c1ccc2cnc(Nc3cnn(C4CCNCC4)c3)nn12 [Example 716, 4-{4-[7-(2-Methoxy-phenyl)-pyrrolo[2,1-f][1,2,4]triazin-2-ylamino]-pyrazol-1-yl}-piperidine] | < 100 nM | < 100 nM | – | –
